# Test system: 377384-186-R-J1-PDC complex spheroid viability
# Experiment: Anticancer human tumor 377384-186-R-J1-PDC patient-derived pancreatic carcinoma cell line growth inhibition [CLK]
# Details: for IC50: curve of first compound; for viability, T/C: stronger effect = lower value
# How it was run: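 Multi-cell-type spheroids combined patient-derived tumor cells with HUVEC endothelial cells and human mesenchymal stem cells. Paired agents were dosed in half-log steps down from about clinical Cmax, or from 10 microM where Cmax was unknown.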
# [1] = second compound 0.0316 µM, first compound 0.0316 µM
# [2] = second compound 0.0316 µM, first compound 0.1 µM
# [3] = second compound 0.0316 µM, first compound 0.316 µM
# [4] = second compound 0.0316 µM, first compound 1 µM
# [5] = second compound 0.0316 µM, first compound 3.16 µM
# [6] = second compound 0.0316 µM, first compound 10 µM
# [7] = second compound 0.1 µM, first compound 0.0316 µM
# [8] = second compound 0.1 µM, first compound 0.1 µM
# [9] = second compound 0.1 µM, first compound 0.316 µM
# [10] = second compound 0.1 µM, first compound 1 µM
# [11] = second compound 0.1 µM, first compound 3.16 µM
# [12] = second compound 0.1 µM, first compound 10 µM
# [13] = second compound 0.316 µM, first compound 0.0316 µM
# [14] = second compound 0.316 µM, first compound 0.1 µM
# [15] = second compound 0.316 µM, first compound 0.316 µM
# [16] = second compound 0.316 µM, first compound 1 µM
# [17] = second compound 0.316 µM, first compound 3.16 µM
# [18] = second compound 0.316 µM, first compound 10 µM
# [19] = second compound 1 µM, first compound 0.0316 µM
# [20] = second compound 1 µM, first compound 0.1 µM
# [21] = second compound 1 µM, first compound 0.316 µM
# [22] = second compound 1 µM, first compound 1 µM
# [23] = second compound 1 µM, first compound 3.16 µM
# [24] = second compound 1 µM, first compound 10 µM
# [25] = second compound 3.16 µM, first compound 0.0316 µM
# [26] = second compound 3.16 µM, first compound 0.1 µM
# [27] = second compound 3.16 µM, first compound 0.316 µM
# [28] = second compound 3.16 µM, first compound 1 µM
# [29] = second compound 3.16 µM, first compound 3.16 µM
# [30] = second compound 3.16 µM, first compound 10 µM
# [31] = second compound 10 µM, first compound 0.0316 µM
# [32] = second compound 10 µM, first compound 0.1 µM
# [33] = second compound 10 µM, first compound 0.316 µM
# [34] = second compound 10 µM, first compound 1 µM
# [35] = second compound 10 µM, first compound 3.16 µM
# [36] = second compound 10 µM, first compound 10 µM
# 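Also: spheroids exposed to agents for 7 days before reading.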
# 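For viability, T/C in this document: luminescence signal used as a stand-in for viable cells.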
compound,measurement,setting,value
C=CC(=O)Nc1cc(Nc2nccc(-c3cn(C)c4ccccc34)n2)c(OC)cc1N(C)CCN(C)C + CNC(=O)c1ccc(Nc2nc(OC3CCCC3)c3c(-c4ccc5nc(C)oc5c4)c[nH]c3n2)c(OC)c1,IC50,second compound 0.0316 µM,> 300 nM
same,IC50,second compound 0.1 µM,53.1 nM
same,IC50,second compound 0.316 µM,< 0.949 nM
same,IC50,second compound 1 µM,< 0.949 nM
same,IC50,second compound 3.16 µM,< 0.949 nM
same,IC50,second compound 10 µM,< 0.949 nM
same,"viability, T/C","second compound 0.0316 µM, first compound 0.000949 µM",91.5%
same,"viability, T/C","second compound 0.0316 µM, first compound 0.003 µM",109%
same,"viability, T/C","second compound 0.0316 µM, first compound 0.00949 µM",99.2%
same,"viability, T/C","second compound 0.0316 µM, first compound 0.03 µM",103%
same,"viability, T/C","second compound 0.0316 µM, first compound 0.0949 µM",86.3%
same,"viability, T/C","second compound 0.0316 µM, first compound 0.3 µM",59%
same,"viability, T/C","second compound 0.1 µM, first compound 0.000949 µM",64.1%
same,"viability, T/C","second compound 0.1 µM, first compound 0.003 µM",63.5%
same,"viability, T/C","second compound 0.1 µM, first compound 0.00949 µM",55.7%
same,"viability, T/C","second compound 0.1 µM, first compound 0.03 µM",59.4%
same,"viability, T/C","second compound 0.1 µM, first compound 0.0949 µM",42.8%
same,"viability, T/C","second compound 0.1 µM, first compound 0.3 µM",29.7%
same,"viability, T/C","second compound 0.316 µM, first compound 0.000949 µM",20.6%
same,"viability, T/C","second compound 0.316 µM, first compound 0.003 µM",23.6%
same,"viability, T/C","second compound 0.316 µM, first compound 0.00949 µM",20.6%
same,"viability, T/C","second compound 0.316 µM, first compound 0.03 µM",17.2%
same,"viability, T/C","second compound 0.316 µM, first compound 0.0949 µM",17.3%
same,"viability, T/C","second compound 0.316 µM, first compound 0.3 µM",17%
same,"viability, T/C","second compound 1 µM, first compound 0.000949 µM",17.7%
same,"viability, T/C","second compound 1 µM, first compound 0.003 µM",18.1%
same,"viability, T/C","second compound 1 µM, first compound 0.00949 µM",21.8%
same,"viability, T/C","second compound 1 µM, first compound 0.03 µM",19.2%
same,"viability, T/C","second compound 1 µM, first compound 0.0949 µM",16.7%
same,"viability, T/C","second compound 1 µM, first compound 0.3 µM",16.7%
same,"viability, T/C","second compound 3.16 µM, first compound 0.000949 µM",20.1%
same,"viability, T/C","second compound 3.16 µM, first compound 0.003 µM",20.9%
same,"viability, T/C","second compound 3.16 µM, first compound 0.00949 µM",21.1%
same,"viability, T/C","second compound 3.16 µM, first compound 0.03 µM",19.5%
same,"viability, T/C","second compound 3.16 µM, first compound 0.0949 µM",17.9%
same,"viability, T/C","second compound 3.16 µM, first compound 0.3 µM",14.8%
same,"viability, T/C","second compound 10 µM, first compound 0.000949 µM",18.9%
same,"viability, T/C","second compound 10 µM, first compound 0.003 µM",21.2%
same,"viability, T/C","second compound 10 µM, first compound 0.00949 µM",18.1%
same,"viability, T/C","second compound 10 µM, first compound 0.03 µM",19.4%
same,"viability, T/C","second compound 10 µM, first compound 0.0949 µM",17.6%
same,"viability, T/C","second compound 10 µM, first compound 0.3 µM",15.3%
CC(Nc1ccc2c(c1)OCCn1cc(N3C(=O)OCC3C(F)F)nc1-2)C(N)=O (stereo not drawn) + CNC(=O)c1ccc(Nc2nc(OC3CCCC3)c3c(-c4ccc5nc(C)oc5c4)c[nH]c3n2)c(OC)c1,IC50,second compound 0.0316 µM,905 nM
same,IC50,second compound 0.1 µM,221 nM
same,IC50,second compound 0.316 µM,< 31.6 nM
same,IC50,second compound 1 µM,< 31.6 nM
same,IC50,second compound 3.16 µM,< 31.6 nM
same,IC50,second compound 10 µM,< 31.6 nM
same,"viability, T/C",[1],84.8%
same,"viability, T/C",[2],90.6%
same,"viability, T/C",[3],71.2%
same,"viability, T/C",[4],49.1%
same,"viability, T/C",[5],41.6%
same,"viability, T/C",[6],41.2%
same,"viability, T/C",[7],59%
same,"viability, T/C",[8],61.5%
same,"viability, T/C",[9],41.7%
same,"viability, T/C",[10],42.8%
same,"viability, T/C",[11],33.4%
same,"viability, T/C",[12],29%
same,"viability, T/C",[13],21.1%
same,"viability, T/C",[14],20.5%
same,"viability, T/C",[15],18.4%
same,"viability, T/C",[16],15%
same,"viability, T/C",[17],13.5%
same,"viability, T/C",[18],14%
same,"viability, T/C",[19],18.1%
same,"viability, T/C",[20],14.4%
same,"viability, T/C",[21],14.4%
same,"viability, T/C",[22],14.8%
same,"viability, T/C",[23],12.8%
same,"viability, T/C",[24],12.6%
same,"viability, T/C",[25],17.7%
same,"viability, T/C",[26],18.5%
same,"viability, T/C",[27],18%
same,"viability, T/C",[28],14.2%
same,"viability, T/C",[29],13.1%
same,"viability, T/C",[30],11.8%
same,"viability, T/C",[31],16.1%
same,"viability, T/C",[32],17.5%
same,"viability, T/C",[33],14.1%
same,"viability, T/C",[34],15.6%
same,"viability, T/C",[35],13.4%
same,"viability, T/C",[36],11.6%
CCN1CCN(Cc2ccc(Nc3ncc(F)c(-c4cc(F)c5nc(C)n(C(C)C)c5c4)n3)nc2)CC1 + CNC(=O)c1ccc(Nc2nc(OC3CCCC3)c3c(-c4ccc5nc(C)oc5c4)c[nH]c3n2)c(OC)c1,IC50,second compound 0.0316 µM,299 nM
same,IC50,second compound 0.1 µM,17.4 nM
same,IC50,second compound 0.316 µM,< 3.16 nM
same,IC50,second compound 1 µM,< 3.16 nM
same,IC50,second compound 3.16 µM,< 3.16 nM
same,IC50,second compound 10 µM,< 3.16 nM
same,"viability, T/C","second compound 0.0316 µM, first compound 0.00316 µM",105%
same,"viability, T/C","second compound 0.0316 µM, first compound 0.01 µM",84.2%
same,"viability, T/C",[1],80%
same,"viability, T/C",[2],66.7%
same,"viability, T/C",[3],44.6%
same,"viability, T/C",[4],37.4%
same,"viability, T/C","second compound 0.1 µM, first compound 0.00316 µM",58.9%
same,"viability, T/C","second compound 0.1 µM, first compound 0.01 µM",53.9%
same,"viability, T/C",[7],45.8%
same,"viability, T/C",[8],41.1%
same,"viability, T/C",[9],34.4%
same,"viability, T/C",[10],29.3%
same,"viability, T/C","second compound 0.316 µM, first compound 0.00316 µM",19.5%
same,"viability, T/C","second compound 0.316 µM, first compound 0.01 µM",18.5%
same,"viability, T/C",[13],21.5%
same,"viability, T/C",[14],19.9%
same,"viability, T/C",[15],24.6%
same,"viability, T/C",[16],22.4%
same,"viability, T/C","second compound 1 µM, first compound 0.00316 µM",18.6%
same,"viability, T/C","second compound 1 µM, first compound 0.01 µM",23.3%
same,"viability, T/C",[19],20.4%
same,"viability, T/C",[20],20.8%
same,"viability, T/C",[21],20.1%
same,"viability, T/C",[22],23.3%
same,"viability, T/C","second compound 3.16 µM, first compound 0.00316 µM",20.1%
same,"viability, T/C","second compound 3.16 µM, first compound 0.01 µM",22.1%
same,"viability, T/C",[25],19.7%
same,"viability, T/C",[26],18.9%
same,"viability, T/C",[27],18.9%
same,"viability, T/C",[28],18.7%
same,"viability, T/C","second compound 10 µM, first compound 0.00316 µM",20.3%
same,"viability, T/C","second compound 10 µM, first compound 0.01 µM",18%
same,"viability, T/C",[31],16.9%
same,"viability, T/C",[32],17.8%
same,"viability, T/C",[33],22%
same,"viability, T/C",[34],25.9%
Nc1ccccc1NC(=O)c1ccc(CNC(=O)OCc2cccnc2)cc1 + CNC(=O)c1ccc(Nc2nc(OC3CCCC3)c3c(-c4ccc5nc(C)oc5c4)c[nH]c3n2)c(OC)c1,IC50,second compound 0.0316 µM,434 nM
same,IC50,second compound 0.1 µM,128 nM
same,IC50,second compound 0.316 µM,< 31.6 nM
same,IC50,second compound 1 µM,< 31.6 nM
same,IC50,second compound 3.16 µM,< 31.6 nM
same,IC50,second compound 10 µM,< 31.6 nM
same,"viability, T/C",[1],94.4%
same,"viability, T/C",[2],75.5%
same,"viability, T/C",[3],62.5%
same,"viability, T/C",[4],26.7%
same,"viability, T/C",[5],11.9%
same,"viability, T/C",[6],1.2%
same,"viability, T/C",[7],57.9%
same,"viability, T/C",[8],57.2%
same,"viability, T/C",[9],35.9%
same,"viability, T/C",[10],30.2%
same,"viability, T/C",[11],12.3%
same,"viability, T/C",[12],1.53%
same,"viability, T/C",[13],24.8%
same,"viability, T/C",[14],23.2%
same,"viability, T/C",[15],18%
same,"viability, T/C",[16],19.4%
same,"viability, T/C",[17],9.99%
same,"viability, T/C",[18],1.4%
same,"viability, T/C",[19],22.6%
same,"viability, T/C",[20],23%
same,"viability, T/C",[21],19.7%
same,"viability, T/C",[22],21.5%
same,"viability, T/C",[23],12.6%
same,"viability, T/C",[24],1.83%
same,"viability, T/C",[25],20.9%
same,"viability, T/C",[26],21.6%
same,"viability, T/C",[27],21.7%
same,"viability, T/C",[28],16.9%
same,"viability, T/C",[29],12.1%
same,"viability, T/C",[30],0.82%
same,"viability, T/C",[31],20.6%
same,"viability, T/C",[32],22.9%
same,"viability, T/C",[33],19%
same,"viability, T/C",[34],18.6%
same,"viability, T/C",[35],13.7%
same,"viability, T/C",[36],1.29%
